# Experimental data as given in US20240415819A1, “MACROCYCLIC COMPOUNDS AS PROTEASOME SUBUNIT BETA TYPE-5 INHIBITORS” (Lead Discovery Center GmbH, priority 2021, published 2024).
# Like-named read-outs stand apart in the source and are kept apart here.
# Legend:
# [1] = system: A549 (human lung carcinoma cell line); experiment: Glo assay of A549 cells (Table 3; ProteasomeGlo plating scheme); type: cell-based; conditions: Homo sapiens
# In short: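 Luminescent read-out of cellular chymotrypsin-like proteasome activity: cells exposed to compound 105 min at 37° C., 5% CO2, then given Suc-LLVY-Glo reagent, shaken 2-5 min and kept dark 10-15 min before reading. Values are IC50 [nM].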
# hPMBC = experiment: Chymotrypsin-like ProteasomeGlo assay in hPBMC; type: cell-based; conditions: Homo sapiens; read-out: Pglo hPBMC
# In short: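 B cells isolated from human PBMC (buffy coats, density gradient, magnetic isolation). Cells treated with compound for 105 min at 37 °C, with staurosporine and DMSO included. Chymotrypsin-like proteasome activity read by luminescence with Suc-LLVY-Glo substrate to derive IC50.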
# [2] = A549 cells, read-out: PGLo A549
SMILES,"IC50 [1, 2] [nM]",IC50 (hPMBC) [nM],"IC50 ([1]; A549, read-out: PGLo A549 [nM]) [nM]"
"Cc1ccc2cc1CNC(=O)[C@H](CCc1ccccc1)NC(=O)CCCCC(=O)N1CCCC(CCO2)C1 (stereo partly drawn) [Compound 16, (9S)-5^4-methyl-9-phenethyl-4-oxa-7,10-diaza-1(3,1)-piperidina-5(1,3)-benzenacyclohexadecaphane-8,11,16-trione]",500 to 1000,–,–
"CC(=O)N[C@H]1CCCC(=O)N2CCC2(C)COc2ccc(C)c(c2)CNC(=O)[C@H](CCc2ccccc2)NC1=O (stereo partly drawn) [Compound 281, N-((8S,11S)-1^2,4^4-dimethyl-7,10,15-trioxo-8-phenethyl-3-oxa-6,9-diaza-1(2,1)-azetidina-4(1,3)-benzenacyclopentadecaphane-11-yl)acetamide]",1000 to 5000,1000 to 5000,–
"CC(=O)N[C@H]1CCCC(=O)N2CCCC(CCOc3ccc(C)c(c3)CNC(=O)[C@H](CCc3ccccc3)NC1=O)C2 (stereo partly drawn) [Compound 213, N-((9S,12S)-5^4-methyl-8,11,16-trioxo-9-phenethyl-4-oxa-7,10-diaza-1(3,1)-piperidina-5(1,3)-benzenacyclohexadecaphane-12-yl)acetamide]",100 to 500,< 100,–
"Cc1ccc2cc1CNC(=O)[C@H](CCc1ccccc1)NC(=O)[C@@H](NS(=O)(=O)CCc1ccccc1)CC(=O)N1CCCC(CCO2)C1 (stereo partly drawn) [Compound 217, N-((9S,12S)-5^4-methyl-8,11,14-trioxo-9-phenethyl-4-oxa-7,10-diaza-1(3,1)-piperidina-5(1,3)-benzenacyclotetradecaphane-12-yl)-2-phenylethane-1-sulfonamide]",< 100,< 100,–
"Cc1cc2cc(c1C)CNC(=O)[C@H](Cc1c[nH]c3ccccc13)NC(=O)CCC(=O)N1CCCC(CCO2)C1 (stereo partly drawn) [Compound 120, (9S)-9-((1H-indol-3-yl)methyl)-5^4,5^5-dimethyl-4-oxa-7,10-diaza-1(3,1)-piperidina-5(1,3)-benzenacyclotetradecaphane-8,11,14-trione]",1000 to 5000,100 to 500,–
"CC(=O)N[C@H]1CCC(=O)N2CCCC(C2)Oc2ccc(C)c(c2)CNC(=O)[C@H](CCc2ccccc2)NC1=O (stereo partly drawn) [Compound 148, N-((7S,10S)-3^4-methyl-6,9,13-trioxo-7-phenethyl-2-oxa-5,8-diaza-1(3,1)-piperidina-3(1,3)-benzenacyclotridecaphane-10-yl)acetamide]",> 5000,500 to 1000,–
"Cc1ccc2cc1CNC(=O)[C@H](CCc1ccccc1)NC(=O)[C@@H](NC(=O)C1(C)COC1)CC(=O)N1CCCC(CCO2)C1 (stereo partly drawn) [Compound 287, 3-methyl-N-((9S,12S)-5^4-methyl-8,11,14-trioxo-9-phenethyl-4-oxa-7,10-diaza-1(3,1)-piperidina-5(1,3)-benzenacyclotetradecaphane-12-yl)oxetane-3-carboxamide]",< 100,< 100,–
"Cc1ccc2cc1CNC(=O)[C@H](CCc1ccccc1)NC(=O)CCC(=O)N1CCCC(CCO2)C1 (stereo partly drawn) [Compound 13, (9S)-5^4-methyl-9-phenethyl-4-oxa-7,10-diaza-1(3,1)-piperidina-5(1,3)-benzenacyclotetradecaphane-8,11,14-trione]",500 to 1000,–,–
"COCCOCCOCCOCCOCCC(=O)N[C@H]1CC(=O)N2CCCC(CCOc3ccc(C)c(c3)CNC(=O)[C@H](CCc3ccccc3)NC1=O)C2 (stereo partly drawn) [Compound 219, N-((9S,12S)-5^4-methyl-8,11,14-trioxo-9-phenethyl-4-oxa-7,10-diaza-1(3,1)-piperidina-5(1,3)-benzenacyclotetradecaphane-12-yl)-2,5,8,11,14-pentaoxaheptadecan-17-amide]",< 100,< 100,–
"Cc1ccc2cc1CNC(=O)[C@H](CCc1ccccc1)NC(=O)[C@@H](NC(=O)CN1CCCC1)CC(=O)N1CCCC(CCO2)C1 (stereo partly drawn) [Compound 89, N-((9S,12S)-5^4-methyl-8,11,14-trioxo-9-phenethyl-4-oxa-7,10-diaza-1(3,1)-piperidina-5(1,3)-benzenacyclotetradecaphane-12-yl)-2-(pyrrolidin-1-yl)acetamide]",< 100,< 100,–
"Cc1ccc2cc1CNC(=O)[C@H](CCc1ccccc1)NC(=O)[C@@H](NC(=O)C1(N)CCOC1)CC(=O)N1CCCC(CCO2)C1 (stereo partly drawn) [Compound 159, 3-amino-N-((9S,12S)-5^4-methyl-8,11,14-trioxo-9-phenethyl-4-oxa-7,10-diaza-1(3,1)-piperidina-5(1,3)-benzenacyclotetradecaphane-12-yl)tetrahydrofuran-3-carboxamide]",100 to 500,< 100,–
"CC(=O)N[C@H]1CC(=O)N2CCCC(CCOc3ccc(F)c(c3)CNC(=O)[C@H](CCc3ccccc3)NC1=O)C2 (stereo partly drawn) [Compound 205, N-((9S,12S)-5^4-fluoro-8,11,14-trioxo-9-phenethyl-4-oxa-7,10-diaza-1(3,1)-piperidina-5(1,3)-benzenacyclotetradecaphane-12-yl)acetamide]",< 100,< 100,–
"CC(=O)N[C@H]1CC(=O)N2CCOC(CCOc3ccc(C)c(c3)CNC(=O)[C@H](CCc3ccccc3)NC1=O)C2 (stereo partly drawn) [Compound 258, N-((9S,12S)-5^4-methyl-8,11,14-trioxo-9-phenethyl-4-oxa-7,10-diaza-1(2,4)-morpholina-5(1,3)-benzenacyclotetradecaphane-12-yl)acetamide]",500 to 1000,100 to 500,–
"Cc1ccc2cc1CNC(=O)[C@H](CCc1ccccc1)NC(=O)[C@@H](NC(=O)C1(F)CCNCC1)CC(=O)N1CCCC(CCO2)C1 (stereo partly drawn) [Compound 134, 4-fluoro-N-((9S,12S)-5^4-methyl-8,11,14-trioxo-9-phenethyl-4-oxa-7,10-diaza-1(3,1)-piperidina-5(1,3)-benzenacyclotetradecaphane-12-yl)piperidine-4-carboxamide]",< 100,< 100,–
"Cc1ccc2cc1CNC(=O)C(CCc1cccnc1)NC(=O)CCC(=O)N1CCCC(CCO2)C1 (stereo not shown) [Compound 51, 5^4-methyl-9-(2-(pyridin-3-yl)ethyl)-4-oxa-7,10-diaza-1(3,1)-piperidina-5(1,3)-benzenacyclotetradecaphane-8,11,14-trione]",100 to 500,–,–
"Cc1ccc2cc1CNC(=O)[C@H](CCc1ccccc1)NC(=O)[C@@H](Nc1nc3ccccc3[nH]1)CC(=O)N1CCCC(CCO2)C1 (stereo partly drawn) [Compound 45, (9S,12S)-12-((1H-benzo[d]imidazol-2-yl)amino)-5^4-methyl-9-phenethyl-4-oxa-7,10-diaza-1(3,1)-piperidina-5(1,3)-benzenacyclotetradecaphane-8,11,14-trione]",100 to 500,–,–
"Cc1ccc2cc1CNC(=O)[C@H](CCc1ccccc1)NC(=O)[C@@H](N1C(=O)CCC1=O)CC(=O)N1CCCC(CCO2)C1 (stereo partly drawn) [Compound 43, (9S,12S)-12-(2,5-dioxopyrrolidin-1-yl)-5^4-methyl-9-phenethyl-4-oxa-7,10-diaza-1(3,1)-piperidina-5(1,3)-benzenacyclotetradecaphane-8,11,14-trione]",100 to 500,–,–
"Cc1ccc2cc1CNC(=O)[C@H](CCc1ccccc1)NC(=O)[C@@H](Nc1ccccn1)CC(=O)N1CCCC(CCO2)C1 (stereo partly drawn) [Compound 36, (9S,12S)-5^4-methyl-9-phenethyl-12-(pyridin-2-ylamino)-4-oxa-7,10-diaza-1(3,1)-piperidina-5(1,3)-benzenacyclotetradecaphane-8,11,14-trione]",100 to 500,–,–
"Cc1ccc2cc1CNC(=O)[C@H](Cc1ccccc1)NC(=O)CCC(=O)N1CCCC(CCO2)C1 (stereo partly drawn) [Compound 79, (9S)-9-benzyl-5^4-methyl-4-oxa-7,10-diaza-1(3,1)-piperidina-5(1,3)-benzenacyclotetradecaphane-8,11,14-trione]",1000 to 5000,–,–
"Cc1ccc2cc1CNC(=O)[C@H](CCc1ccccc1)NC(=O)[C@@H](NS(C)(=O)=O)CC(=O)N1CCCC(CCO2)C1 (stereo partly drawn) [Compound 37, N-((9S,12S)-5^4-methyl-8,11,14-trioxo-9-phenethyl-4-oxa-7,10-diaza-1(3,1)-piperidina-5(1,3)-benzenacyclotetradecaphane-12-yl)methanesulfonamide]",< 100,–,–
"Cc1ccc2cc1CNC(=O)[C@H](CCc1ccccc1)NC(=O)[C@@H](NC(=O)CCc1cccc(F)c1)CC(=O)N1CCCC(CCO2)C1 (stereo partly drawn) [Compound 25, 3-(3-fluorophenyl)-N-((9S,12S)-5^4-methyl-8,11,14-trioxo-9-phenethyl-4-oxa-7,10-diaza-1(3,1)-piperidina-5(1,3)-benzenacyclotetradecaphane-12-yl)propanamide]",< 100,–,–
"Cc1ccc2cc1CNC(=O)[C@H](CCc1ccccc1)NC(=O)[C@@H](NC(=O)c1ccncc1)CC(=O)N1CCCC(CCO2)C1 (stereo partly drawn) [Compound 42, N-((9S,12S)-5^4-methyl-8,11,14-trioxo-9-phenethyl-4-oxa-7,10-diaza-1(3,1)-piperidina-5(1,3)-benzenacyclotetradecaphane-12-yl)isonicotinamide]",< 100,–,–
"CCOC(=O)N[C@H]1CC(=O)N2CCCC(CCOc3ccc(C)c(c3)CNC(=O)[C@H](CCc3ccccc3)NC1=O)C2 (stereo partly drawn) [Compound 39, ethyl ((9S,12S)-5^4-methyl-8,11,14-trioxo-9-phenethyl-4-oxa-7,10-diaza-1(3,1)-piperidina-5(1,3)-benzenacyclotetradecaphane-12-yl)carbamate]",–,–,< 100
"Cc1ccc2cc1CNC(=O)[C@H](CCc1ccccc1)NC(=O)[C@@H](NC(=O)c1ccccn1)CC(=O)N1CCCC(CCO2)C1 (stereo partly drawn) [Compound 40, N-((9S,12S)-5^4-methyl-8,11,14-trioxo-9-phenethyl-4-oxa-7,10-diaza-1(3,1)-piperidina-5(1,3)-benzenacyclotetradecaphane-12-yl)picolinamide]",< 100,–,–
"Cc1ccc2cc1CNC(=O)[C@H](CCc1ccccc1)NC(=O)[C@@H](NC(=O)c1ccccc1)CC(=O)N1CCCC(CCO2)C1 (stereo partly drawn) [Compound 26, N-((9S,12S)-5^4-methyl-8,11,14-trioxo-9-phenethyl-4-oxa-7,10-diaza-1(3,1)-piperidina-5(1,3)-benzenacyclotetradecaphane-12-yl)benzamide]",< 100,–,–
